Assay results as given in ChEMBL document CHEMBL5365551, “Fragment-Based NMR Screening of the BPTF PHD Finger Methyl Lysine Reader Leads to the First Small-Molecule Inhibitors” (ACS Med Chem Lett, 2023).
Calls of active or inactive are those of the source. No cut-off for these calls is given here.

Columns and labels:
[1] = target: T1, Nucleosome-remodeling factor subunit BPTF (Homo sapiens, UniProt Q12830); test: Inhibition of biotinylated-H3K4me2 binding to N-terminal His9 tagged human BPTF isoform 2 PHD (2722 to 2781 residues) expressed in Escherichia coli BL21 Star (DE3) measured after 1 hr by Alphascreen assay
[2] = target: T1, Nucleosome-remodeling factor subunit BPTF; test: Inhibition of biotinylated-H3K4me2 binding to N-terminal His9 tagged human BPTF isoform 2 PHD (2722 to 2781 residues) expressed in Escherichia coli BL21 Star (DE3) at 2 mM measured after 1 hr by Alphascreen assay relative to control
[3] = target: T1, Nucleosome-remodeling factor subunit BPTF; test: Binding affinity to N-terminal His9 tagged human BPTF isoform 2 PHD (2722 to 2781 residues) expressed in Escherichia coli BL21 Star (DE3) assessed as reduction in proton resonance intensity at 100 uM by 1H CPMG NMR assay relative to control; set-up: scale not given: the % may be the effect or the level left
[4] = target: Lysine-specific demethylase 5A (Homo sapiens) (UniProt P29375); test: Binding affinity to N-terminal His-tagged human KDM5A PHD3 (1486 to 1690 residues) expressed in Escherichia coli BL21 Star (DE3) assessed as reduction in proton resonance intensity at 100 uM by 1H CPMG NMR assay relative to control; set-up: scale not given: the % may be the effect or the level left
Lysine-specific demethylase 5A (Homo sapiens), sequence (P29375 whole entry, the tested form may be a part, canonical isoform): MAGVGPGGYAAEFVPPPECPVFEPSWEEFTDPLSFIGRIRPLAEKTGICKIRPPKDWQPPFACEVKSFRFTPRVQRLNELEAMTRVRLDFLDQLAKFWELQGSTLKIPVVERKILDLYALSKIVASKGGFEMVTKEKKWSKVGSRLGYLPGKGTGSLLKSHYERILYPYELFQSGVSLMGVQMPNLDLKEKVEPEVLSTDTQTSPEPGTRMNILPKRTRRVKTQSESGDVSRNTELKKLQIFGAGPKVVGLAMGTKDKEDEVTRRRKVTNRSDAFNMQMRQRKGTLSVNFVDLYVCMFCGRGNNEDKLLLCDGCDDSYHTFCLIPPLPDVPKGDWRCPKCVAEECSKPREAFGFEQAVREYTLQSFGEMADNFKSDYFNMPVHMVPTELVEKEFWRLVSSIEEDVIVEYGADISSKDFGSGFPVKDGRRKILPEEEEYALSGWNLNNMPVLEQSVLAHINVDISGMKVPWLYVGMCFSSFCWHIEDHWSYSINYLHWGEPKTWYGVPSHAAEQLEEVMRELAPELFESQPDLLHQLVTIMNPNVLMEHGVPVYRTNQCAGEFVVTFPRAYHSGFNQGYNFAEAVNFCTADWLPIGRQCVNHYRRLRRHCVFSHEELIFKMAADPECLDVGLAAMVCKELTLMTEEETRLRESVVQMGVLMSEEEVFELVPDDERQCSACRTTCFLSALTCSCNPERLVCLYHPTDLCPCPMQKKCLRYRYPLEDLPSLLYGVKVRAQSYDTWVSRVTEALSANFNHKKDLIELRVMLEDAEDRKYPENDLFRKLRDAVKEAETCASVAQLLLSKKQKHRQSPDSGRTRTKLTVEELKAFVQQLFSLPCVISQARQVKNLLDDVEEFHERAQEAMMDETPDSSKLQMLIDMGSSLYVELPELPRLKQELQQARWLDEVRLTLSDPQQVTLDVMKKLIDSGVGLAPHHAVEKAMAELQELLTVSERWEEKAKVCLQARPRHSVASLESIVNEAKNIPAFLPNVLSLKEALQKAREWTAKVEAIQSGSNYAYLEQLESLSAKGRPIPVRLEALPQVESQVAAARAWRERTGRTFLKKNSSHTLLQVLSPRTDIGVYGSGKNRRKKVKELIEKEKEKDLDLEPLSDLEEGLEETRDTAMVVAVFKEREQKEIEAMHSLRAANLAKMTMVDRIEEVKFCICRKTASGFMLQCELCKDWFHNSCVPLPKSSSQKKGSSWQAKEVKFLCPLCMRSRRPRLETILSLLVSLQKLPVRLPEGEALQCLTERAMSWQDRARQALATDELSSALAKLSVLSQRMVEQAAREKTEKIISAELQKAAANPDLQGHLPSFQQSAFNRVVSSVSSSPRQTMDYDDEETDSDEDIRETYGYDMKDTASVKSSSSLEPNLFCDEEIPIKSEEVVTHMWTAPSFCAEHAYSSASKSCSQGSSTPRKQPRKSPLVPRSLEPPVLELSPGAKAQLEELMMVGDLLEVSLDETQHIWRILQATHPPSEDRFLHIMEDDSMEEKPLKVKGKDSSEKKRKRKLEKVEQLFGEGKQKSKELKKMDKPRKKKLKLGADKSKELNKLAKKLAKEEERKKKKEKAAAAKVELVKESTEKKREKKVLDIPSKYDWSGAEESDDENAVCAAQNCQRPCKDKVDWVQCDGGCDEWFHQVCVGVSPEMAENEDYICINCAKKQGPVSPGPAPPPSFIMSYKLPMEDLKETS

[5] = target: T1, Nucleosome-remodeling factor subunit BPTF; test: Binding affinity to N-terminal His9 tagged human BPTF isoform 2 PHD (2722 to 2781 residues) expressed in Escherichia coli BL21 Star (DE3) at 400 uM by SPR assay
[6] = target: T1, Nucleosome-remodeling factor subunit BPTF; test: Binding affinity to N-terminal His9 tagged human BPTF isoform 2 PHD (2722 to 2781 residues) expressed in Escherichia coli BL21 Star (DE3) assessed as change in chemical shift perturbations at 1 mM by 1H,15N HSQC NMR spectroscopy

IC50 ([1]; read-out: IC50) [µM] | Activity [3] [%] | Activity [4] [%] | Activity [5] | SMILES | also measured
1200 | – | – | – | CC(=O)N1CCN(c2ccc(Nc3ccc(C)cc3)nn2)CC1 | –
– | – | – | – | CCS(=O)(=O)N1CCN(c2ccc(Nc3ccc(C)cc3)nn2)CC1 | inhibition [2]: 78%
– | 25 | < 20 | inactive | Cn1nc2c(c1CNC(=O)c1ccc3c(c1)OCO3)CCC2 | inhibition [2]: 71%
– | 35 | < 20 | inactive | c1ccc2nc(N3CCOCC3)ccc2c1 | –
380 | 65 | < 20 | Active | NCC1CCN(c2cccc(F)c2)C1 (centres undefined) | Activity [6]: Active
220 | – | – | – | NCC1CC(=O)N(c2ccc(F)c(F)c2)C1 (centres undefined) | –
– | – | – | – | Nc1ccnc2c1CCCC2 | inhibition [2]: 70%
– | – | – | – | Cc1ccc(Nc2ccc(Cl)nn2)cc1 | IC50 [1]: Not Determined(Insoluble)
– | – | – | – | Nc1c2c(nc3c1CCC3)CCC2 | inhibition [2]: 60%
20 | – | – | – | c1ccc(Nc2ccc(N3CCNCC3)nn2)nc1 | –
500 | 25 | > 20 | inactive | O=C(CC12CC3CC(CC(C3)C1)C2)N1CCCC1 | –
380 | – | – | – | CC(=O)N1CCc2c(sc(N)c2C#N)C1 | –
– | 30 | < 20 | Active | COC1CN(c2nc3ccccc3s2)C1 | inhibition [2]: 70%
300 | 50 | < 20 | Active | Cc1ccc(Nc2ccc(N3CCNCC3)nn2)cc1 | Activity [6]: inactive
63 | – | – | – | N#Cc1c(N)sc2c1CCCCC2 | –
– | 50 | < 20 | Active | Cc1cccc(CSC2=NCCN2)c1 | inhibition [2]: 83%
25 | – | – | – | Fc1ccc(Nc2ccc(N3CCNCC3)nn2)cc1 | Activity [6]: inactive
– | 35 | < 20 | – | Cc1ccc(NC(=O)NCC(C)N2CCCC2)cc1 (centres undefined) | –
590 | 50 | < 20 | Active | Nc1c2c(nc3c1CCC3)CCCC2 [IPIDACRINE] | –
130 | 60 | > 20 | inactive | N#Cc1c(N)sc2c1CCCC2 | Activity [6]: Active
30 | – | – | – | Cc1ccc(Nc2ccc(N3CCNCC3)nn2)nc1 | –

SMILES | IC50 ([1]; read-out: IC50) [µM] | Activity [3] [%] | Activity [4] [%] | Activity [5] | also measured
c1ccc(N2CC3CNCC3C2)cc1 (centres undefined) | 150 | – | – | – | –
Clc1ccc(N2CCNCC2)nn1 | 750 | – | – | – | –
